Measured values published in patent US5041567A, “Antibacterial monic acid derivatives” (Beecham Group plc, priority 1982, dated 1991).
In brackets after ≈: the same amount, converted by molar mass. Read-outs that look alike come from different tables or passages of the source.

Legend:
Strep. uberis SPU1 = test: MIC against veterinary bacteria in vitro; details: Streptococcus uberis, SPU1, 18 h
Experimental: (§1) The activity of the compounds of the Examples against various veterinarily important bacteria, was assayed in vitro using two-fold serial dilutions in Diagnostic Sensitivity Test Agar inoculated with 10^4 organisms.

[1] = system: Ps. aeruginosa NCTC 10662; test: MIC against human bacteria in vitro; assay type: cell-based; details: Pseudomonas aeruginosa, NCTC10662; Ps. aeruginosa NCTC 10662; 5% chocolated horse blood agar, 18 hours; read-out: MIC
M. suipneumoniae TAM 6N = test: MIC against mycoplasma in vitro; assay type: cell-based; details: Mesomycoplasma hyopneumoniae, TAM6N, 144 h
[2] = system: Staph. aureus 152 (pen. sens); test: MIC against veterinary bacteria in vitro; details: Staphylococcus aureus, 18 h
Experimental: as §1

Past. multocida PA2 = test: MIC against veterinary bacteria in vitro; details: Pasteurella multocida, PA2, 18 h
Experimental: as §1

[3] = system: Corynebacterium pyogenes CY1; test: MIC against veterinary bacteria in vitro; details: CY1, 18 h
Experimental: as §1

E. coli ESS = test: MIC against human bacteria in vitro; assay type: cell-based; details: Escherichia coli; E. coli ESS; 5% chocolated horse blood agar, 18 hours; read-out: MIC
[4] = system: Erysipelothrix rhusiopathiae NCTC 8163; test: MIC against veterinary bacteria in vitro; details: Erysipelothrix rhusiopathiae, NCTC8163, 18 h
Experimental: as §1

S. dublin S7 = test: MIC against veterinary bacteria in vitro; details: Salmonella enterica, S7, 18 h
Experimental: as §1

S. typhimurium S18 = test: MIC against veterinary bacteria in vitro; details: Salmonella enterica, TYPHIMURIUM, 18 h
Experimental: as §1

M. suipneumoniae Str. 11 = test: MIC against mycoplasma in vitro; assay type: cell-based; details: Mesomycoplasma hyopneumoniae
[5] = system: Corynebacterium xerosis 9755; test: MIC against human bacteria in vitro; assay type: cell-based; details: Corynebacterium xerosis 9755; 5% chocolated horse blood agar, 18 hours; read-out: MIC
[6] = system: M. suipneumoniae ATCC 25095; test: MIC against mycoplasma in vitro; assay type: cell-based; details: Mesomycoplasma hyopneumoniae, ATCC25095, 144 h
M. hyorhinis ATCC 23234 = test: MIC against mycoplasma in vitro; assay type: cell-based; details: Mesomycoplasma hyorhinis, ATCC23234, 144 h
M. suipneumoniae MS 16 = test: MIC against mycoplasma in vitro; assay type: cell-based; details: Mesomycoplasma hyopneumoniae, MS16, 144 h
[7] = system: Haemophilus influenzae Wy21; test: MIC against human bacteria in vitro; assay type: cell-based
Strep. dysgalactiae SPD1 = test: MIC against veterinary bacteria in vitro; details: Streptococcus dysgalactiae, SPD1, 18 h
Experimental: as §1

Sarcina lutea 8340 = test: MIC against human bacteria in vitro; assay type: cell-based; details: Micrococcus luteus; Sarcina lutea 8340; 5% chocolated horse blood agar, 18 hours; read-out: MIC
Staph. aureus Oxford = test: MIC against veterinary bacteria in vitro; details: Staphylococcus aureus, 18 h
Experimental: as §1

[8] = system: M. bovigenitalium ATCC 14173; test: MIC against mycoplasma in vitro; assay type: cell-based; details: 144 h
M. suipneumoniae LABER = test: MIC against mycoplasma in vitro; assay type: cell-based; details: Mesomycoplasma hyopneumoniae, 144 h
Strep. spp. 64/848-C = test: MIC against human bacteria in vitro; assay type: cell-based; details: Strep. spp. 64/848-C; 5% chocolated horse blood agar, 18 hours; read-out: MIC
Staph. aureus W2827 = test: MIC against human bacteria in vitro; assay type: cell-based; details: Staphylococcus aureus; Staph. aureus W2827; 5% chocolated horse blood agar, 18 hours; read-out: MIC
M. suipneumoniae NB12 = test: MIC against mycoplasma in vitro; assay type: cell-based; details: Mesomycoplasma hyopneumoniae
M. hyorhinis ATCC 25021 = test: MIC against mycoplasma in vitro; assay type: cell-based; details: Mesomycoplasma hyorhinis, ATCC25021, 144 h
Strep. faecalis I = test: MIC against human bacteria in vitro; assay type: cell-based; details: Enterococcus faecalis; Strep. faecalis I; 5% chocolated horse blood agar, 18 hours; read-out: MIC
Strep. agalactiae 2788-B = test: MIC against human bacteria in vitro; assay type: cell-based; details: Streptococcus agalactiae; Strep. agalactiae 2788-B; 5% chocolated horse blood agar, 18 hours; read-out: MIC
[9] = system: Strep. pyogenes R80/421-A; test: MIC against human bacteria in vitro; assay type: cell-based; details: Streptococcus pyogenes
K. aerogenes A = test: MIC against human bacteria in vitro; assay type: cell-based; details: Klebsiella aerogenes; K. aerogenes A; 5% chocolated horse blood agar, 18 hours; read-out: MIC
M. suipneumoniae HK(2) = test: MIC against mycoplasma in vitro; assay type: cell-based; details: Mesomycoplasma hyopneumoniae, 144 h
Bacillus subtilis 6633 = test: MIC against human bacteria in vitro; assay type: cell-based; details: Bacillus subtilis 6633; 5% chocolated horse blood agar, 18 hours; read-out: MIC
Staph. aureus Russell = test: MIC against human bacteria in vitro; assay type: cell-based; details: Staphylococcus aureus; Staph. aureus Russell; 5% chocolated horse blood agar, 18 hours; read-out: MIC
E. coli NCTC 10418 = test: MIC against human bacteria in vitro; assay type: cell-based; details: Escherichia coli, NCTC10418; E. coli NCTC 10418; agar with 5% chocolated horse blood, 18 hours, 37° C.; read-out: MIC
[10] = 144 h, M. suipneumoniae Str. 11, 6 days, 37° C., read-out: MIC
[11] = M. suipneumoniae MS 16, 6 days, 37° C., read-out: MIC
[12] = M. suipneumoniae LABER, 6 days, 37° C., read-out: MIC
[13] = M. hyorhinis ATCC 25021, 6 days, 37° C., read-out: MIC
[14] = Haemophilus influenzae Wy21, 5% chocolated horse blood agar, 18 hours, read-out: MIC
[15] = Strep. pyogenes R80/421-A, 5% chocolated horse blood agar, 18 hours, read-out: MIC

SMILES | MIC (Strep. uberis SPU1) | MIC [1] | MIC [2] | MIC (Past. multocida PA2) | MIC [3] | MIC (E. coli ESS) | MIC [4] | MIC (S. dublin S7) | MIC (S. typhimurium S18) | MIC [5] | MIC (Strep. dysgalactiae SPD1) | MIC (Sarcina lutea 8340) | MIC (Staph. aureus Oxford) | MIC [8] | MIC (Strep. spp. 64/848-C) | MIC (Staph. aureus W2827) | MIC (Strep. faecalis I) | MIC (Strep. agalactiae 2788-B) | MIC (K. aerogenes A) | MIC (Bacillus subtilis 6633) | further results
C/C(=C\c1ncc(-c2ccsc2)o1)C[C@@H]1OC[C@H](C[C@@H]2O[C@H]2[C@@H](C)[C@H](C)O)[C@@H](O)[C@H]1O [Example 20, 5-(3-Thienyl)-2-(1-normon-2-yl) oxazole A] | 0.156 mg/L (≈ 0.347 µM) | > 128 mg/L | 0.63 mg/L (≈ 1.4 µM) | 0.312 mg/L (≈ 0.694 µM) | > 80 mg/L | 4 mg/L (≈ 8.9 µM) | 80 mg/L (≈ 178 µM) | > 80 mg/L | > 80 mg/L | > 128 mg/L | 0.625 mg/L (≈ 1.39 µM) | > 128 mg/L | 2.55 mg/L (≈ 5.67 µM) | 0.05 mg/L (≈ 0.111 µM) | 2 mg/L (≈ 4.45 µM) | 4 mg/L (≈ 8.9 µM) | > 128 mg/L | 2 mg/L (≈ 4.45 µM) | > 128 mg/L | 0.5 mg/L (≈ 1.11 µM) | MIC (M. suipneumoniae TAM 6N): 1 mg/L (≈ 2.22 µM); MIC (M. suipneumoniae Str. 11; [10]): 0.5 mg/L (≈ 1.11 µM); MIC ([6]; M. suipneumoniae ATCC 25095, 6 days, 37° C., read-out: MIC): 0.5 mg/L (≈ 1.11 µM); MIC (M. hyorhinis ATCC 23234; M. hyorhinis ATCC 23234, 6 days, 37° C., read-out: MIC): 0.5 mg/L (≈ 1.11 µM); MIC (M. suipneumoniae MS 16; [11]): 0.5 mg/L (≈ 1.11 µM); MIC ([7]; Haemophilus influenzae, WY21, 18 h): 0.5 mg/L (≈ 1.11 µM); MIC (M. suipneumoniae LABER; [12]): 0.5 mg/L (≈ 1.11 µM); MIC (M. suipneumoniae NB12; 144 h, M. suipneumoniae NB12, Friis broth, 0.9% agarose, 6 days, 37° C., read-out: MIC): 0.5 mg/L (≈ 1.11 µM); MIC (M. hyorhinis ATCC 25021; [13]): 0.5 mg/L (≈ 1.11 µM); MIC ([9]; R80/421A, 18 h): 0.25 mg/L (≈ 0.556 µM); MIC (M. suipneumoniae HK(2)): 1 mg/L (≈ 2.22 µM); MIC (Staph. aureus Russell): 4 mg/L (≈ 8.9 µM); MIC (E. coli NCTC 10418): > 128 mg/L
C/C(=C\c1ncc(-c2ccc(C#N)cc2)o1)C[C@@H]1OC[C@H](C[C@@H]2O[C@H]2[C@@H](C)[C@H](C)O)[C@@H](O)[C@H]1O [Example 21, 5-p-Cyanophenyl-2-(1-normon-2-yl) oxazole A] | 0.156 mg/L (≈ 0.333 µM) | > 128 mg/L | 0.625 mg/L (≈ 1.33 µM) | 0.625 mg/L (≈ 1.33 µM) | > 80 mg/L | 4 mg/L (≈ 8.54 µM) | 40 mg/L (≈ 85.4 µM) | > 80 mg/L | > 80 mg/L | > 128 mg/L | 0.625 mg/L (≈ 1.33 µM) | > 128 mg/L | 2.5 mg/L (≈ 5.34 µM) | 0.05 mg/L (≈ 0.107 µM) | 4 mg/L (≈ 8.54 µM) | 4 mg/L (≈ 8.54 µM) | > 128 mg/L | 4 mg/L (≈ 8.54 µM) | > 128 mg/L | 1 mg/L (≈ 2.13 µM) | MIC (M. suipneumoniae TAM 6N; M. suipneumoniae TAM 6N, 6 days, 37° C., read-out: MIC): 0.5 mg/L (≈ 1.07 µM); MIC (M. suipneumoniae Str. 11; STR.11, 144 h): 0.25 mg/L (≈ 0.534 µM); MIC [6]: 0.25 mg/L (≈ 0.534 µM); MIC (M. hyorhinis ATCC 23234): 0.25 mg/L (≈ 0.534 µM); MIC (M. suipneumoniae MS 16): 0.25 mg/L (≈ 0.534 µM); MIC [7, 14]: 2 mg/L (≈ 4.27 µM); MIC (M. suipneumoniae LABER): 0.25 mg/L (≈ 0.534 µM); MIC (M. suipneumoniae NB12; NB12, 144 h): 0.25 mg/L (≈ 0.534 µM); MIC (M. hyorhinis ATCC 25021): 0.25 mg/L (≈ 0.534 µM); MIC [9, 15]: 1 mg/L (≈ 2.13 µM); MIC (M. suipneumoniae HK(2); M. suipneumoniae HK(2), 6 days, 37° C., read-out: MIC): 0.5 mg/L (≈ 1.07 µM); MIC (Staph. aureus Russell): 4 mg/L (≈ 8.54 µM); MIC (E. coli NCTC 10418): > 128 mg/L
CSc1cccc(-c2cnc(/C=C(\C)C[C@@H]3OC[C@H](C[C@@H]4O[C@H]4[C@@H](C)[C@H](C)O)[C@@H](O)[C@H]3O)o2)c1 [Example 22, 5-m-Methylthiophenyl-2-(1-normon-2-yl)oxazole A] | 0.156 mg/L (≈ 0.319 µM) | > 128 mg/L | 1.25 mg/L (≈ 2.55 µM) | 10 mg/L (≈ 20.4 µM) | > 80 mg/L | 64 mg/L (≈ 131 µM) | 80 mg/L (≈ 163 µM) | > 80 mg/L | > 80 mg/L | > 128 mg/L | 1.25 mg/L (≈ 2.55 µM) | > 128 mg/L | 2.5 mg/L (≈ 5.11 µM) | 0.1 mg/L (≈ 0.204 µM) | 16 mg/L (≈ 32.7 µM) | 16 mg/L (≈ 32.7 µM) | > 128 mg/L | 16 mg/L (≈ 32.7 µM) | > 128 mg/L | 4 mg/L (≈ 8.17 µM) | MIC (M. suipneumoniae TAM 6N): 1 mg/L (≈ 2.04 µM); MIC (M. suipneumoniae Str. 11; [10]): 0.5 mg/L (≈ 1.02 µM); MIC [6]: 1 mg/L (≈ 2.04 µM); MIC (M. hyorhinis ATCC 23234): 1 mg/L (≈ 2.04 µM); MIC (M. suipneumoniae MS 16; [11]): 0.5 mg/L (≈ 1.02 µM); MIC [7, 14]: 4 mg/L (≈ 8.17 µM); MIC (M. suipneumoniae LABER; [12]): 0.5 mg/L (≈ 1.02 µM); MIC (M. suipneumoniae NB12; NB12, 144 h): 1 mg/L (≈ 2.04 µM); MIC (M. hyorhinis ATCC 25021; [13]): 0.5 mg/L (≈ 1.02 µM); MIC [9, 15]: 8 mg/L (≈ 16.3 µM); MIC (M. suipneumoniae HK(2)): 1 mg/L (≈ 2.04 µM); MIC (Staph. aureus Russell): 16 mg/L (≈ 32.7 µM); MIC (E. coli NCTC 10418): > 128 mg/L
